In ChEMBL document CHEMBL5614447, “Innovative Drug Discovery: Targeting Cancer, Neurological Disorders, and Obesity” (ACS Med Chem Lett, 2024) one finds binding affinity (displacement) data, which are given here for eight compounds.

Where only a bound is given, the exact number is not on record here.

Sequence of Protein cereblon/DNA damage-binding protein 1 (Homo sapiens) (Q16531 2-1140 partner limits assumed): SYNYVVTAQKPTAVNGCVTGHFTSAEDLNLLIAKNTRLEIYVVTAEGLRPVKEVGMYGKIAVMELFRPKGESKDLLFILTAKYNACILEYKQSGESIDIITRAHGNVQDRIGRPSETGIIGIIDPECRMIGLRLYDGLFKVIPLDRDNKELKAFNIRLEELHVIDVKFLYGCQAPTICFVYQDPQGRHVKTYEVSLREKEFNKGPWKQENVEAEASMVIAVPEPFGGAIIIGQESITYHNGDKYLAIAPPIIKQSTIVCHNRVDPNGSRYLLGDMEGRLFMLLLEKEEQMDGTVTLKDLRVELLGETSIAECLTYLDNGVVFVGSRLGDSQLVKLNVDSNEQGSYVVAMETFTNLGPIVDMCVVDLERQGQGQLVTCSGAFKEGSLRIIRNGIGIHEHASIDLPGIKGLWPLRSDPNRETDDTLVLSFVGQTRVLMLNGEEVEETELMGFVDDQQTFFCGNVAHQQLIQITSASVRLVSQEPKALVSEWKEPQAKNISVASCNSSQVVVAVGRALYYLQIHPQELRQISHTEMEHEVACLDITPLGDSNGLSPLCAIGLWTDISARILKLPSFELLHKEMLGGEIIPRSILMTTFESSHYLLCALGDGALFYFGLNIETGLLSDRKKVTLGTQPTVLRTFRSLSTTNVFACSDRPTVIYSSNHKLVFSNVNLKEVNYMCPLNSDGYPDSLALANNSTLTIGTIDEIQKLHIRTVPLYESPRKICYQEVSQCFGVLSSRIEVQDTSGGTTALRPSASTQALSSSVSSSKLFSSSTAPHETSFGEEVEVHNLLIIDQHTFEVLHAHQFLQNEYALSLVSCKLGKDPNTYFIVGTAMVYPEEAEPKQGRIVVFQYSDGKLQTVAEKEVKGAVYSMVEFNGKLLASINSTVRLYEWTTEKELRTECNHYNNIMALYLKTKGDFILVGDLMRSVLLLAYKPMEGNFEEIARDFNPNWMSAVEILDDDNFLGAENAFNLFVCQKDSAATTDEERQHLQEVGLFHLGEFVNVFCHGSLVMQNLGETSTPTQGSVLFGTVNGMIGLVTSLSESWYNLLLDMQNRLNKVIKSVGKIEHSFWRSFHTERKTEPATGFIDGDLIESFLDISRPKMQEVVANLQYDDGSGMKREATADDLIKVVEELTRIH
Sequence of Protein cereblon/DNA damage-binding protein 1 (Homo sapiens) (Q96SW2 whole entry): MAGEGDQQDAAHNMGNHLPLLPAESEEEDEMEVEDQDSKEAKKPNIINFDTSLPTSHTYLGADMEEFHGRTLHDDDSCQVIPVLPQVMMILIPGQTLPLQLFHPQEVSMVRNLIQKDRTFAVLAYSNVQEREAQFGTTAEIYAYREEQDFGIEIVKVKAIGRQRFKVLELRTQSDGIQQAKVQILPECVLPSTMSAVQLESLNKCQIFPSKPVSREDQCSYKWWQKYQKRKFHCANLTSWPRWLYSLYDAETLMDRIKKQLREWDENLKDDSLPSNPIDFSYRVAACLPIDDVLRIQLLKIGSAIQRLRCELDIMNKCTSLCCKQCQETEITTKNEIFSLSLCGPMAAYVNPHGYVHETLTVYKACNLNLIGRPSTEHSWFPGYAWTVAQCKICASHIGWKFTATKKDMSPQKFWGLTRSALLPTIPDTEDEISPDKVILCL

This assay has as its target Protein cereblon/DNA damage-binding protein 1 (Homo sapiens) (UniProt Q96SW2+Q16531). The experiment in a line: Displacement of AlexaFlour-conjugated ligand from CRBN/DDB1 complex (unknown origin) incubated in 0.05% PA/0.1% BSA at room temperature for 60 mins by fluorescence polarization assay. Format: protein assay. Background: Polarisation of emitted light reports the rotation of a fluorescent probe.
For `CNC1CCN(c2cccc3c2O[C@H](C)CN3C2CCC(=O)NC2=O)CC1` (stereo partly drawn), the binding affinity (displacement) is less than 100 µM.

Take `CNC1CCN(c2cccc3c2O[C@@H](C)CN3C2CCC(=O)NC2=O)CC1` (stereo partly drawn): the binding affinity (displacement) was less than 100 µM. For the compound `O=C1CCC(N2CCOc3c([C@H]4CCNC4)cccc32)C(=O)N1` (stereo partly drawn), the binding affinity (displacement) is less than 100 µM. In turn, `O=C1CCC(N2CCOc3c(N4CCNCC4)cccc32)C(=O)N1` (stereo not drawn) displayed a binding affinity (displacement) of less than 100 µM. Then `CN(C(=O)OC(C)(C)C)C1CCN(c2cccc3c2OCCN3[C@H]2CCC(=O)NC2=O)CC1`, with less than 100 µM; and `CN(C(=O)OC(C)(C)C)C1CCN(c2cccc3c2OCCN3[C@@H]2CCC(=O)NC2=O)CC1`, with less than 1 µM.

Compound `O=C1CCC(N2CCOc3c([C@@H]4CCNC4)cccc32)C(=O)N1` (stereo partly drawn) came in with a binding affinity (displacement) of less than 100 µM. Compound `O=C1CCC(N2CCOc3c([C@@H]4CCCNC4)cccc32)C(=O)N1` (stereo partly drawn) showed a binding affinity (displacement) of less than 100 µM.
